Laboratory results as given in patent publication US5162316A, “Pyrimido[4,5-d]pyrimidine derivatives for use as bronchodilators” (Smith Kline & French Laboratories Limited, priority 1988, dated 1992).

How the values were obtained:
[1] = test system: U46619-induced bronchoconstriction; assay: Bronchodilatation in vivo: inhibition of U46619-induced bronchoconstriction in anaesthetised guinea-pigs (Konzett-Rossler); set-up: species or system guinea-pig (Dunkin Hartley, male); conditions: for ED50: Cavia porcellus, iv, i.v. bolus, anaesthetised guinea-pig, range for the group of listed Examples, read-out: BD50 (dose of compound required to reduce the U46619-induced bronchoconstriction by 50%)
Description: Male guinea-pigs of the Dunkin Hartley strain (500-600g) were anaesthetised with Sagatal (pentobarbital sodium) (60 mg/kg). Airway resistance was measured using a modification of the classical Konzett-Rossler technique (J. Pharm. Methods, 13, 309- 315, 1985). […] The compound under test was administered by i.v. bolus injection, and the subsequent peak inhibition of bronchoconstriction recorded.
The dose of compound required to reduce the U46619-induced bronchoconstriction by 50% is given as the BD50. The compounds of Examples 1, 7, 8, 12, 13, 14, 18, 20, 21, 22 and 24 had BD50 values in the range 0.48-3.85 μmol/kg.

hindquarter blood flow = assay: Vasodilatation in vivo: hindquarter blood flow in anaesthetised rats; set-up: species or system rat (Wistar, male); conditions: bolus i.v., 50 μmol/kg, rat
Description: Male Wistar rats (300 g) were anaesthetised with a sodium 5-ethyl-5-(1methylpropyl)-2-thiobarbiturate/sodium pentobarbitone mixture i.p. (62.5 and 22.5 mg/kg respectively). The trachea was cannulated and the rats breathed spontaneously air enriched with O2 (5 ml/min). Blood pressure was recorded from a carotid artery and a jugular vein was cannulated for the administration of compounds. The temperature of the animal was maintained at 37° C. by the use of an electric blanket. […] The perfusion circuit was primed with 5% bovine serum albumin dissolved in 0.9% sodium chloride solution, pH adjusted to 7.4. Initially the pump rate was set between 10 and 15 ml/min to match the hind quarter perfusion pressure to that of the systemic circulation. Once set, the pressure remained unaltered for the rest of the experiment. A change in the speed of the pump (equivalent to hindquarter blood flow) was used to assess the changes in hindquarter vascular resistance.

[2] = test system: ovalbumen-induced bronchoconstrictor response; assay: Anti-allergic activity: ovalbumen-induced bronchoconstriction in sensitised guinea-pigs; format: in vivo, guinea-pig (Duncan Hartley, male); conditions: ovalbumen 1 mg/kg i.v., n=6
Description: Male Duncan Hartley guinea-pigs (250-300 g) were sensitised to ovalbumen by i.p. injection of 2 ml of 50mg.ml^-1 i.p. and 0.2 ml s.c. Three weeks later they were anaesthetised with 60mg.kg^-1 sodium pentabarbitone. The trachea was cannulated and the animal respired at a rate of 40 breaths per minute and at an initial tracheal inflation pressure of 16 mmHg. Tracheal inflation pressure was measured by a transducer connected to a side arm of the respiration circuit. The carotid artery was cannulated for the measurement of blood pressure and the signal was used to trigger an instantaneous rate meter. A jugular vein was cannulated for the administration of drug and allergen. After surgery the animals were allowed to stabilise and the drug was administered i.v. as a bolus. Following this, ovalbumen 1 mg.kg^-1 was injected i.v. as the antigen challenge either 2, 15 or 30 minutes following drug treatment and the peak bronchoconstrictor response recorded. For the control group ovalbumen only was given. One ovalbumen challenge per guinea-pig was used and n=6 for each time point. The percentage increase in tracheal inflation pressure was calculated. The following results indicating an anti-allergic activity were obtained.

[3] = biological target: T1, calmodulin insensitive cyclic GMP phosphodiesterase (Sus scrofa, UniProt A0A287B475); assay: Kinetic properties of the isolated PDE activity; format: biochemical, pig; conditions: at 1 μM substrate
T1 construct: kept on ice until the pulmonary arteries or aortas could be dissected and excess fat removed; from tissue; host or cells: pig pulmonary arteries or aortas; soluble fraction purified over DEAE-Sepharose, calmodulin-agarose and cibacron blue-agarose
Description: Eight pig hearts/lungs were collected from the abattoir and kept on ice until the pulmonary arteries or aortas could be dissected and excess fat removed. 120 g of tissue was dissected. […] On the day of homogenisation, tissue was cooled with liquid nitrogen and broken into small pieces by striking with a hammer. […] Phenylmethanesulphonylfluoride (PMSF) was added to a final concentration of 50 μM just prior to homogenisation. The homogenate was then centrifuged for 20 minutes at 30,000 g. Supernatant was filtered firstly through glass wool and then a 0.45 μm filter. […] The column was washed with 150 mls of homogenisation buffer and PDE activities eluted with 150 ml of homogenisation buffer containing 100 mM sodium acetate.
Fractions 2 and 3 were pooled and BIS-TRIS, MgCl2, CaCl2 added to final concentrations of 50 mM, 7 mM and 5 mM respectively. PMSF, leupeptin, antipain and pepstatin A were also added at the concentrations described above for these components. The pH of this pooled sample was corrected to 6.9.
The first column in the tandem was a 5 ml calmodulin-agarose column (Sigma) and the second a 1.5 ml cibacron blue 3GA-agarose column (Sigma). Both columns were pre-equilibrated with 50 mM BIS-TRIS, 5 mM MgCl2, 5 mM CaCl2, 5 mM benzamidine, 2 mM dithiothreitol pH 6.9. Following application of the sample the columns were washed with 20 ml of equilibration buffer. […]

[4] = test system: [H][C@@]12COP(=O)(O)O[C@@]1([H])[C@@H](O)[C@H](n1cnc3c(=O)[nH]c(N)nc31)O2; assay: purified protein, by the assay type; conditions: other: substrate of the isolated PDE activity

Compound	ED50 [1]	also measured
CCCOc1ccccc1-c1nc2nc(SC)ncc2c(=O)[nH]1 [Example 1, 7-Methylthio-4-oxo-2-(2-propoxyphenyl)-3,4-dihydropyrimido-[4.5-d]pyrimidin]	0.48 to 3.85 µmol/kg	increase in hindquarter blood flow (hindquarter blood flow): 43.7%
CCCOc1ccccc1-c1nc2nc(N)ncc2c(=O)[nH]1 [Example 7, 7 Amino 4-oxo-2-(2-propoxyphenyl)-3,4-dihydropyrimido[4.5-d]pyrimidine]	0.48 to 3.85 µmol/kg	–
CCCOc1ccccc1-c1nc2nc(NC)ncc2c(=O)[nH]1 [Example 8, 7-Methylamino-4-oxo-2-(2-propoxyphenyl)-3,4-dihydropyrimido[4.5-d]pyrimidine]	0.48 to 3.85 µmol/kg	% Inhibition of Control Bronchoconstrictor Response 30 min after drug administration ([2]; dose 6.0 μmol/kg i.v.): 23%
CCCOc1ccccc1-c1nc2nc(NCC)ncc2c(=O)[nH]1 [Example 12, 7-Ethylamino-4-oxo-2-(2-propoxyphenyl)-3,4-dihydropyrimido[4,5-d]pyrimidine]	0.48 to 3.85 µmol/kg	% Inhibition of Control Bronchoconstrictor Response 30 min after drug administration ([2]; dose 18.7 μmol/kg i.v.): 24%
CCCOc1ccccc1-c1nc2nc(NCCO)ncc2c(=O)[nH]1 [Example 13]	0.48 to 3.85 µmol/kg	% Inhibition of Control Bronchoconstrictor Response 30 min after drug administration ([2]; dose 4.8 μmol/kg i.v.): 21%
CCCOc1ccccc1-c1nc2nc(CC)ncc2c(=O)[nH]1 [Example 14, 7-Ethyl-4-oxo-2-(2-propoxyphenyl)-3,4-dihydropyrimido[4,5-d]pyrimidine]	0.48 to 3.85 µmol/kg	–
CCCOc1ccccc1-c1nc2nc(NC3CC3)ncc2c(=O)[nH]1 [Example 18, 7-Cyclopropylamino-4-oxo-2-(2-propoxyphenyl)-3,4-dihydropyrimido[4,5-d]pyrimidine]	0.48 to 3.85 µmol/kg	% Inhibition of Control Bronchoconstrictor Response 30 min after drug administration ([2]; dose 22.6 μmol/kg i.v.): 44%
CCCNc1ncc2c(=O)[nH]c(-c3ccccc3OCCC)nc2n1 [Example 20, 7-Propylamino-4-oxo-2-(2-propoxyphenyl)-3,4-dihydropyrimido[4,5-d]pyrimidine]	0.48 to 3.85 µmol/kg	–
CCCOc1ccccc1-c1nc2nc(NCCCO)ncc2c(=O)[nH]1 [Example 21, 7-(3-Hydroxypropylamino)-4-oxo-2-(2-propoxyphenyl)-3,4-dihydropyrimido[4.5 d]pyrimidine]	0.48 to 3.85 µmol/kg	–
CCCOc1ccccc1-c1nc2nc(NCCOC)ncc2c(=O)[nH]1 [Example 22]	0.48 to 3.85 µmol/kg	–
CCCOc1ccccc1-c1nc2nc(NCC(C)O)ncc2c(=O)[nH]1 (centres unmarked) [Example 24, 7-(2-Hydroxypropylamino)-4-oxo-2-(2-propoxyphenyl)-3,4-dihydropyrimido[4,5-d]pyrimidine]	0.48 to 3.85 µmol/kg	% Inhibition of Control Bronchoconstrictor Response 30 min after drug administration ([2]; dose 6.5 μmol/kg i.v.): 24%
CCCCCC(O)C=CC1C2CC(CO2)C1CC=CCCCC(=O)O (centres unmarked) [Example U46619, 9,11-methaneoepoxy-PGH2, reference compound]	–	increase from basal airway resistance (steady state of bronchoconstriction) ([1]; U46619 infused i.v. at 2.5 nmol/min): approximately 120%
Nc1nc2c(ncn2[C@@H]2O[C@@H]3COP(=O)(O)O[C@H]3[C@H]2O)c(=O)[nH]1 [cGMP]	–	Ratio of cGMP/cAMP hydrolysis [3]: 30
calmodulin insensitive cyclic GMP phosphodiesterase (Sus scrofa)	–	Km [4]: 1.3 µM
